Assay results reported in patent US20020065314A1, “COMPOSITIONS AND METHOD FOR STIMULATING HAIR GROWTH” (priority 1995, published 2002).
Like-named read-outs stand apart in the source and are kept apart here.

Columns and labels:
[1] = tested on: C57BL/KsJ db/+ and C57BL/KsJ db/db mice; test: Effect of isobutyl cyanoacrylate on hair growth, topical; assay type: in vivo, mouse
[2] = tested on: C57BL/KsJ db/+ and C57BL/KsJ db/db mice; test: Effect of isobutyl cyanoacrylate on hair growth, topical; assay type: in vivo, mouse; conditions: for Hair growth: 10 μl cm^−2 topical
Protocol: The following experiment was performed to identify the effect of isobutyl cyanoacrylate, a structural analog of n-butyl cyanoacrylate, on hair growth. The shaved backs of C57BL/KsJ db/+ and C57BL/KsJ db/db mice were treated topically at a dose of 10 μl cm^−2 with either isobutyl cyanoacrylate (Sigma Chemical Co., St Louis, Mo.) or n-butyl cyanoacrylate.

C57BL/KsJ db/+ mice = tested on: C57BL/KsJ db/+ mice
Protocol: The induction of hair loss following treatment with certain anticancer drugs, such as cyclophosphamide or doxorubicin, is well documented (A. Tierney & J. Taylor (1991) Nurs. Stand 5:29-31; R. R. Love, et al. (1989) Cancer 63:604-612; B. W. Cline (1984) Cancer Nurs. 7:221-228). The following experiment was performed to determine the effect of n-butyl cyanoacrylate on hair regrowth in mice pre-treated with cyclophosphamide or doxorubicin. Twenty mice of strain C57BL/KsJ db/+ were peritoneally injected with either cyclophosphamide in PBS (20 mg per kilogram of body weight) or Doxorubicin in PBS (2 mg per kilogram of body weight) for 10 consecutive days. Then a single 10 μl dose of n-butyl cyanoacrylate was applied topically to an area of the shaved dorsum of each animal. Control mice, which were injected with PBS alone, were treated similarly. The effects of hair regrowth were determined both by phototrichogram (macroscopic observation using photography) and by folliculogram (microscopic observation of histological changes in the treated and untreated skin).

hair growth = test: Hair growth stimulation by comparison agents; conditions: in vivo

## C=C(C#N)C(=O)OCC(C)C [isobutyl cyanoacrylate]
[1]; C57BL/KsJ +/+ mouse, 19 days post application
  hair growth on dorsum (photograph): “T” pattern of hair growth
[1]; several strains of mice
  hair growth response to formulation with about 0.01% monomethyl hydroquinone: positive response
Mice and rats; mice and rats
  response compared with hair growth induced by n-butyl cyanoacrylate: very similar
Mice and rats; two species (rat and mouse), seven strains of mouse
  hair growth in normal intact skin, in skin of animals pre-treated with anticancer drugs, and at edges of wounds: stimulate hair growth
[2]; C57BL/KsJ db/+
  Hair growth: 3+ (high hair regeneration with an area larger than 50% of the treated area)
[2]; C57BL/KsJ db/db
  Hair growth: 3+ (high hair regeneration with an area larger than 50% of the treated area)
[2]; both strains
  hair growth response compared with that of n-butyl cyanoacrylate: nearly identical
[2]; both strains, post treatment
  time at which hair growth was visible: 8 to 12 days
  time at which hair reached full length: 15 to 18 days
  time at which many new hair follicles occurred in treated area: 2 to 3 days

## O=P1(N(CCCl)CCCl)NCCCO1 (stereo not shown) [cyclophosphamide, reference compound]
C57BL/KsJ db/+ mice; pre-treatment with the anticancer drug, then topical n-butyl cyanoacrylate
  pigmentation of new hair and skin in pre-treated animals: lack of pigmentation in the new growth hairs

## COc1cccc2c1C(=O)c1c(O)c3c(c(O)c1C2=O)C[C@@](O)(C(=O)CO)C[C@@H]3O[C@H]1C[C@H](N)[C@H](O)[C@H](C)O1 [doxorubicin, reference compound]
C57BL/KsJ db/+ mice; mouse, in vivo
  pigmentation of new hair and skin in pre-treated animals: normal pigmentation

## CCCCOC(=O)CCCCCCCCC(=O)OCCCC [sebacic acid dibutyl ester]
Hair growth
  stimulation of hair growth: not effective in stimulating hair growth
